{"source": "patent US20200216800A1", "about": "“CELL CULTURE MEDIUM FOR PRODUCING TARGET MATERIAL AT HIGH EFFICIENCY BY USING MAMMALIAN CELLS, CELL CULTURING METHOD USING SAME, AND METHOD OF PRODUCING TARGET MATERIAL” (priority 2015, published 2020)", "type_in_all_cases": "cell-based, Chinese hamster", "key": {"rCHO-1 cells [1]": {"test_system": "rCHO-1 cells", "assay": "Suspension culture of rCHO-1 cells: density of live cells, growth and longevity (hemocytometer, trypan blue dye exclusion)", "text": "(§1) Two recombinant CHO DG44 cell lines (hereinafter referred to as “rCHo-1” and “rCHO-2”) were used for monoclonal antibody (mAB) production. Each cell line was passaged 8 times or more and suspension adapted in a protein-free medium (HY-PFM, in-house) or chemically defined medium (HY-CDM, in-house). The suspension-adapted cell line was used to evaluate how the concentrations of trace elements, the selection of an effective trace element, and the concentration of ZnSO4.7H2O (Zn) affected the growth of cells and the production of antibody in commercial chemically defined media.\n(§2) The cell line was inoculated at a density of 4×10^5 cells/ml and cultured in an Erlenmeyer flask with a 30 ml/125 ml working volume on an orbital shaker at 120 rpm under humidified conditions at 37° C. and 5% CO2. Before inoculation, the cells were centrifuged at 1,000 rpm (×162 g) for 5 min, the supernatant was discarded, and the remaining cells were dispersed into single cells in the heated medium. The cells were passaged three times to minimize the influence of the remaining medium under the experimental conditions. The subcultured cells were evaluated.\nThe density of live cells was analyzed using a hemocytometer (Neubauer improved bright-line, Marienfeld, Germany), an inverted microscope (CK30, Olympus, Japan), and trypan blue dye exclusion."}, "rCHO-1 cells [2]": {"test_system": "rCHO-1 cells", "assay": "Suspension culture of rCHO-1 cells: antibody level by sandwich ELISA", "text": "as §1, §2\n4, 6, 8, 10, and 12 days after cells were inoculated under the experimental conditions, cell culture fluids were sampled, centrifuged at 1,000 rpm (×162 g) for 5 min, and stored at −20° C. before antibody analysis. Antibody levels were measured by sandwich enzyme linked immunosorbent assay (ELISA). For the detection of mAB by ELISA, anti-human IgG (Fab specific) (I5260, Sigma, St. Louis, Mo., USA) was used as a primary antibody and human IgG (Fc specific)-horseradish peroxidase (A0170, Sigma) was used as a chromogenic antibody. 1% (w/v) bovine serum albumin/phosphate buffered saline was used for blocking, 3,3′,5,5′-tetramethylbenzidine (TMB) solution (KPL, Gaithersburg, Md., USA) was used as a chromogenic reagent. The chromogenic reaction was stopped with 2 M H2SO4. For antibody level analysis, absorbance values were measured at a wavelength of 450 nm using a kinetic microplate reader (Molecular Devices, Sunnyvale, Calif., USA)."}, "rCHO-2 cells": {"test_system": "rCHO-2 cells", "assay": "Suspension culture of rCHO-2 cells: antibody level by sandwich ELISA", "details": "HY-CDM, Zn around 60-75 μM", "text": "as §1\nThe cell line was inoculated at a density of 4×10^5 cells/ml and cultured in an Erlenmeyer flask with a 30 ml/125 ml working volume on an orbital shaker at 120 rpm under humidified conditions at 37° C. and 5% CO2. […] The subcultured cells were evaluated.\n4, 6, 8, 10, and 12 days after cells were inoculated under the experimental conditions, cell culture fluids were sampled, centrifuged at 1,000 rpm (×162 g) for 5 min, and stored at −20° C. before antibody analysis. Antibody levels were measured by sandwich enzyme linked immunosorbent assay (ELISA). […] For antibody level analysis, absorbance values were measured at a wavelength of 450 nm using a kinetic microplate reader (Molecular Devices, Sunnyvale, Calif., USA)."}, "[3]": {"details": "HY-PFM, trace element individually added in 20-fold amount of control"}, "[4]": {"details": "commercial CDM-1, 2 and 3, Zn ions enhanced to 60 μM"}, "[5]": {"details": "HY-CDM, Zn around 60-75 μM, rCHO-1"}}, "note": "Marks after values point to notes of the source that are not given here.", "data": [{"molecule": "O.O.O.O.O.O.O.O=S(=O)([O-])[O-].[Zn+2]", "note": "[Zn, ZnSO4.7H2O]", "values": [{"measurement": "cell longevity (cell viability of 80%), times higher than control group", "setting": "rCHO-1 cells [1]; HY-CDM, Zn 60 μM", "value": 1.8, "unit": "times"}, {"measurement": "live cell densities", "setting": "rCHO-1 cells [1]; HY-PFM and HY-CDM, Zn 60 μM", "value": "9×10^6 cells/ml"}, {"measurement": "period for which live cell density was maintained during cell culture", "setting": "rCHO-1 cells [1]; HY-PFM and HY-CDM, Zn 60 μM", "value": "at least 9 days"}, {"measurement": "cell longevity (cell viability of 80%), times higher than control group", "setting": "rCHO-1 cells [1]; HY-PFM, Zn 60 μM", "value": 1.4, "unit": "times"}, {"measurement": "maximum cell density", "setting": "rCHO-1 cells [1]; [3]", "value": "1.1×10^7 cells/ml"}, {"measurement": "Cell longevity (day/80% viability)", "setting": "rCHO-1 cells [1]; Zn 3 μM (control level), CDM", "value": "5.1 ± 0.0", "unit": "days"}, {"measurement": "μ", "setting": "rCHO-1 cells [1]; Zn 3 μM (control level), CDM", "value": "1.01 ± 0.04", "unit": "day⁻¹"}, {"measurement": "Cell longevity (day/80% viability)", "setting": "rCHO-1 cells [1]; Zn 3 μM (control level), PFM", "value": "6.2 ± 0.0", "unit": "days"}, {"measurement": "μ", "setting": "rCHO-1 cells [1]; Zn 3 μM (control level), PFM", "value": "0.87 ± 0.01", "unit": "day⁻¹"}, {"measurement": "Cell longevity (day/80% viability)", "setting": "rCHO-1 cells [1]; Zn 60 μM, CDM", "value": "9.3 ± 0.4", "unit": "days"}, {"measurement": "μ", "setting": "rCHO-1 cells [1]; Zn 60 μM, CDM", "value": "1.00 ± 0.00", "unit": "day⁻¹"}, {"measurement": "Cell longevity (day/80% viability)", "setting": "rCHO-1 cells [1]; Zn 60 μM, PFM", "value": "8.5 ± 0.2", "unit": "days"}, {"measurement": "μ", "setting": "rCHO-1 cells [1]; Zn 60 μM, PFM", "value": "0.90 ± 0.02", "unit": "day⁻¹"}, {"measurement": "inhibitory effect on cell growth", "setting": "rCHO-1 cells [1]; Zn ion concentration enhanced to 30-60 μM, recombinant CHO cell lines", "value": "no inhibitory effect on cell growth"}, {"measurement": "inhibition of cell growth", "setting": "rCHO-1 cells [1]; [4]", "value": "No inhibition of cell growth was observed"}, {"measurement": "qmAB at the initial stage of cell culture (0-4 days)", "setting": "rCHO-1 cells [2]; HY-CDM, Zn 60 μM", "value": 5.1, "unit": "pcd"}, {"measurement": "antibody production compared to control group", "setting": "rCHO-1 cells [2]; [5]", "value": 6.6, "unit": "fold"}, {"measurement": "antibody production rate (maximum)", "setting": "rCHO-1 cells [2]; [5]", "value": 440, "unit": "mg/L"}, {"measurement": "increase in antibody production compared to control group", "setting": "rCHO-1 cells [2]; HY-PFM and HY-CDM, Zn 60 μM", "value": "≥ 2", "unit": "fold"}, {"measurement": "qmAB at the initial stage (0-4 days), times those in control group", "setting": "rCHO-1 cells [2]; HY-PFM and HY-CDM, Zn 60 μM vs 3 μM", "value": "at least 1.7 times"}, {"measurement": "qmAB at the initial stage of cell culture (0-4 days)", "setting": "rCHO-1 cells [2]; HY-PFM, Zn 60 μM", "value": 9.4, "unit": "pcd"}, {"measurement": "antibody production (maximum)", "setting": "rCHO-1 cells [2]; HY-PFM, Zn 45-60 μM", "value": 360, "unit": "mg/L"}, {"measurement": "antibody production relative to control group", "setting": "rCHO-1 cells [2]; HY-PFM, Zn 45-60 μM vs control (3 μM)", "value": "twice"}, {"measurement": "maximum antibody level", "setting": "rCHO-1 cells [2]; [3]", "value": 260, "unit": "mg/L"}, {"measurement": "qmAB (ped, 0-4 days)", "setting": "rCHO-1 cells [2]; Zn 3 μM (control level), CDM", "value": "3.07 ± 0.19", "unit": "ped"}, {"measurement": "qmAB (ped, 4-8 days)", "setting": "rCHO-1 cells [2]; Zn 3 μM (control level), CDM, calculated from the results obtained 4-6 days after cell culture", "value": "1.47 ± 0.10^a ped"}, {"measurement": "qmAB (ped, 0-4 days)", "setting": "rCHO-1 cells [2]; Zn 3 μM (control level), PFM", "value": "4.99 ± 0.13", "unit": "ped"}, {"measurement": "qmAB (ped, 4-8 days)", "setting": "rCHO-1 cells [2]; Zn 3 μM (control level), PFM", "value": "1.75 ± 0.01", "unit": "ped"}, {"measurement": "qmAB (ped, 0-4 days)", "setting": "rCHO-1 cells [2]; Zn 60 μM, CDM", "value": "5.06 ± 0.07", "unit": "ped"}, {"measurement": "qmAB (ped, 4-8 days)", "setting": "rCHO-1 cells [2]; Zn 60 μM, CDM", "value": "3.30 ± 0.01", "unit": "ped"}, {"measurement": "qmAB (ped, 0-4 days)", "setting": "rCHO-1 cells [2]; Zn 60 μM, PFM", "value": "9.35 ± 0.11", "unit": "ped"}, {"measurement": "qmAB (ped, 4-8 days)", "setting": "rCHO-1 cells [2]; Zn 60 μM, PFM", "value": "3.74 ± 0.04", "unit": "ped"}, {"measurement": "effectiveness in producing antibody by batch culture", "setting": "rCHO-1 cells [2]; Zn ion concentration enhanced to 30-90 μM, recombinant CHO cell lines", "value": "very effective in producing antibody by batch culture"}, {"measurement": "specific production rates of antibody", "setting": "rCHO-1 cells [2]; Zn ions enhanced to 30 μM, protein-free and chemically defined media, recombinant CHO cell lines", "value": "improved"}, {"measurement": "qmAB at the late stage (4-8 days), times higher than control group", "setting": "rCHO-1 cells [2]; both media (HY-PFM, HY-CDM), Zn 60 μM vs 3 μM", "value": 2.1, "unit": "times"}, {"measurement": "antibody productivities, times higher than control group", "setting": "rCHO-1 cells [2]; [4]", "value": "1.2-1.5 times"}, {"measurement": "cell growth and antibody production", "setting": "rCHO-1 cells [2]; commercial CDM-4 (CD OptiCHO), Zn ions enhanced to 60 μM", "value": "only continuous cell growth and antibody production was observed"}, {"measurement": "antibody production compared to control group", "setting": "rCHO-2 cells", "value": 1.3, "unit": "fold"}, {"measurement": "antibody production rate (maximum)", "setting": "rCHO-2 cells", "value": 210, "unit": "mg/L"}]}]}
